Values quoted from earlier work, collected in patent publication US5116619A, “Vaginal progesterone tablet” (priority 1988, dated 1992).

SMILES: CC(=O)[C@H]1CC[C@H]2[C@@H]3CCC4=CC(=O)CC[C@]4(C)[C@H]3CC[C@]12C [progesterone, pregn-4-ene-3,20-dione]
- plasma half-life (endogenous progesterone): a few minutes
- administered radiolabeled progesterone in feces (feces): about 10%
- serum levels after oral administration (in vivo, po): significant but highly variable serum levels
- first half-life (intravenous injections): 5 to 6 min
- second half-life (intravenous injections): 42 to 45 min
- local tolerability of deep intramuscular injections (parenteral, site of injection): often very painful and irritating at the site of injection
- absorption by the rectal route (rectal, Steege et al.): highly variable
- time in which all exogenous progesterone is metabolized (suggested by Myers et al.): ≤ 24 h
- administered radiolabeled progesterone in urine (urine): 50 to 60%
